No end group written: not given here.
Assay: Complexing rate / complexing ability of zinc ion of soybean peptide fractions
Assay type: binding
Conditions: HPLC separation of F2, FIG. 2

In the case of “KYKRQRW [F21, single peptide component purified by HPLC from F2; also made by solid phase peptide synthesis]”, the “complexing ability with zinc ion, ranking among HPLC fractions” value is reported as “strongest complexing ability with zinc ion”.
